Reference: patent USRE43712E1, “Methods for assaying for antidepressant therapy markers” (The Board of Trustees of the Uniersity of Illinois, priority 2000, dated 2012)

Tests used:
Giα = test: Detergent extraction of Giα from C6-2B glioma membranes; format: cell-based; conditions: C6-2B cells, 10 μM, 3 days; FIG. 4
Protocol: Membrane proteins were extracted sequentially from C6-2B or rat synaptic membranes as described [Yan et al., J. Neurochem., 66:1489-1495; 1996]. These membranes were stirred on ice in HEPES (15 mM, pH 7.4) containing 1% Triton X-100 for 60 min followed by centrifugation at 100,000 g for 60 min at 4° C. The supernatant was reserved (Triton X-100 extract), and the resulting pellet was resuspended in Tris (15 mM, pH 7.4) containing 1.4% Triton X-114 and 150 mM NaCl. The solution was stirred for 60 min at 4° C. and centrifuged for 30 min at 100,000 g in the cold. The supernatant was saved (Triton X-114 extract). These supernatants and remaining pellet (remainder) were subjected to sodium dodecyl sulfate (SDS)-polyacrylamide gel electophoresis (PAGE) using 10% gels. […]
Rat cortex membrane, C6-2B cell membranes, or Triton extracts of each membrane preparation were subjected to SDS-PAGE followed by electrotransfer to polyvinylidene difluoride (PVDF) membrane. […] Immunoreactivity was detected with an enhanced chemiluminescence (ECL) western blot detection system (Amersham) in accord with the manufacturer's instructions. The developed autoradiographs were analyzed by densitometry.
Experiments were conducted (as described in Example 1) to ascertain the effect of antidepressant therapy on the mobility of Giα from C6-2B glioma cells. […] Immunoreactivity was detected with an ECL western blot detection system.

adenylyl cyclase = test: Adenylyl cyclase activity in sucrose density gradient fractions of Triton X-100-solubilized C6-2B cells; format: cell-based; conditions: 10 μM desipramine-treated C6-2B cells
Protocol: C6-2B cells treated as described above were used to prepare Triton-insoluble, caveolin-enriched membrane fractions by the procedure of Li et al. [J. Biol. Chem., 270:15693-15701; 1995] with minor modifications. In brief, C6-2B cells were harvested into 0.75 ml of HEPES buffer (10 mM HEPES, pH 7.5, 150 mM NaCl, 1 mM DTT, 0.3 mM PMSF) containing 1% Triton X-100. Homogenization was carried out with 10 strokes of a Potter-Elvehjem homogenizer. The homogenate was adjusted to 40% sucrose by the addition of an equal volume of 80% sucrose prepared in HEPES buffer and placed at the bottom of an ultracentrifuge tube. A step gradient containing 30, 15, and 5% sucrose was formed above the homogenate and centrifuged at 50,000 rpm for 20 h in an SW65 rotor (240,000 g). Two or three opaque bands confined between the 15 and 30% sucrose layers were harvested, diluted threefold with HEPES buffer, and pelleted in a microcentrifuge at 16,000 g. The pellet was resuspended in HEPES buffer and identified as the Triton-insoluble fraction. The 40% sucrose region of the gradient was saved as the Triton-soluble fraction. In separate experiments, the same conditions were used, but instead of isolating the three opaque bands, 100-μl fractions were collected and assayed for Gs content and adenylyl cyclase activity.
Adenylyl cyclase was assayed as described previously [Rasenick et al., Brain Res., 488:105-113; 1989]. […]

Row | SMILES | Migration of Giα to a less hydrophobic membrane fraction (Giα) | Basal adenylyl cyclase activity (adenylyl cyclase; gradient fractions) | Forskolin-stimulated adenylyl cyclase activity compared with control (adenylyl cyclase; gradient fractions 11 and 12, 10^−4 M forskolin)
1 | CNCCC(Oc1ccc(C(F)(F)F)cc1)c1ccccc1 (stereo not drawn) [Fluoxetine, fluoxetine] | did not migrate to a less hydrophobic membrane fraction |  | 
2 | CNCCCN1c2ccccc2CCc2ccccc21 [Desipramine, desipramine] |  | unchanged | almost a twofold increase
